Our source for the IC50 values is patent US20250145606A1 (Arcus Biosciences, Inc., priority 2023, published 2025).

What all share (settings): biochemical, HTRF KinEASE-TK
(Time-resolved FRET reads energy transfer from a long-lived donor to a nearby acceptor.)

In one assay the target is c-Kit (Homo sapiens (Human), UniProt P10721). The assay can be described thus: Inhibition of c-Kit kinase activity (HTRF KinEASE-TK). In kind it is biochemical. The method in brief: (§1)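 Recombinant kinases (2 nM CSF1R and c-Kit, 10 nM PDGFRα/β, 2× working) preincubated 1 h with compound in 50 mM HEPES pH 7.4, 5 mM MgCl2 (c-Kit) or 10 mM (others), 2 mM MnCl2; 2× ATP: c-Kit 16 μM, PDGFRα 1 μM, PDGFRβ 40 μM, CSF1R 20 μM. 120 min reaction at rt; TR-FRET 665/620 nm; IC50 by 4-parameter fit.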
Sequence of c-Kit (P10721 26-976): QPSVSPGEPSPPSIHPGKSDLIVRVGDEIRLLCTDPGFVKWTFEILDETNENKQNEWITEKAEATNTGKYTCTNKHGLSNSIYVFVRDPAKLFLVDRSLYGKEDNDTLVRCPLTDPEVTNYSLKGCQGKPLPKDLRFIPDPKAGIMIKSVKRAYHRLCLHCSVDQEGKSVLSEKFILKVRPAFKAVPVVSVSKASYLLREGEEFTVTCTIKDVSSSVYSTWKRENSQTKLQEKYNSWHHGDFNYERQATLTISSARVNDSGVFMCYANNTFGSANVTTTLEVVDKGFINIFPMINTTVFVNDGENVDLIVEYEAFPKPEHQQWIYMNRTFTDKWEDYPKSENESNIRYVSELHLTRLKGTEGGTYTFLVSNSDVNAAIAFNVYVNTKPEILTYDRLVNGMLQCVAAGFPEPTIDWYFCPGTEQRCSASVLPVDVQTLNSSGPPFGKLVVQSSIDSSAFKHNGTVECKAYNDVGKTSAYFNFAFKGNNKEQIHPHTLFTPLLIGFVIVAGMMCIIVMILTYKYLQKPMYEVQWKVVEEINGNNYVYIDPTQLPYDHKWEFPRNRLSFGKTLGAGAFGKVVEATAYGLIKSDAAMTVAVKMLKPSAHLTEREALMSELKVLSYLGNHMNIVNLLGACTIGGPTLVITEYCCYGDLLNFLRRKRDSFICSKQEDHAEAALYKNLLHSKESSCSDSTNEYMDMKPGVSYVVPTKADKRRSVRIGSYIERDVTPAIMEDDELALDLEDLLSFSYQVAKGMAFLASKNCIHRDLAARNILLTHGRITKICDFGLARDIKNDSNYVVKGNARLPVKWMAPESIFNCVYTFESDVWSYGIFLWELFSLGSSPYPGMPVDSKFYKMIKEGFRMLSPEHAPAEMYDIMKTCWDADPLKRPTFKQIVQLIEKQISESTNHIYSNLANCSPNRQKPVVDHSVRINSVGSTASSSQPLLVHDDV

Another assay concerns the target PDGFRα (Homo sapiens (Human), UniProt P16234). In words: Inhibition of PDGFRα kinase activity (HTRF KinEASE-TK). The method in brief:
as §1

The next assay concerns the target PDGFRβ (Homo sapiens (Human), UniProt P09619). In words: Inhibition of PDGFRβ kinase activity (HTRF KinEASE-TK). The method in brief: as §1
Another assay deals with CSF1R (Homo sapiens (Human), UniProt P07333). In words: Inhibition of CSF1R kinase activity (HTRF KinEASE-TK). In a few lines: as §1
Sequence of CSF1R (P07333 20-972): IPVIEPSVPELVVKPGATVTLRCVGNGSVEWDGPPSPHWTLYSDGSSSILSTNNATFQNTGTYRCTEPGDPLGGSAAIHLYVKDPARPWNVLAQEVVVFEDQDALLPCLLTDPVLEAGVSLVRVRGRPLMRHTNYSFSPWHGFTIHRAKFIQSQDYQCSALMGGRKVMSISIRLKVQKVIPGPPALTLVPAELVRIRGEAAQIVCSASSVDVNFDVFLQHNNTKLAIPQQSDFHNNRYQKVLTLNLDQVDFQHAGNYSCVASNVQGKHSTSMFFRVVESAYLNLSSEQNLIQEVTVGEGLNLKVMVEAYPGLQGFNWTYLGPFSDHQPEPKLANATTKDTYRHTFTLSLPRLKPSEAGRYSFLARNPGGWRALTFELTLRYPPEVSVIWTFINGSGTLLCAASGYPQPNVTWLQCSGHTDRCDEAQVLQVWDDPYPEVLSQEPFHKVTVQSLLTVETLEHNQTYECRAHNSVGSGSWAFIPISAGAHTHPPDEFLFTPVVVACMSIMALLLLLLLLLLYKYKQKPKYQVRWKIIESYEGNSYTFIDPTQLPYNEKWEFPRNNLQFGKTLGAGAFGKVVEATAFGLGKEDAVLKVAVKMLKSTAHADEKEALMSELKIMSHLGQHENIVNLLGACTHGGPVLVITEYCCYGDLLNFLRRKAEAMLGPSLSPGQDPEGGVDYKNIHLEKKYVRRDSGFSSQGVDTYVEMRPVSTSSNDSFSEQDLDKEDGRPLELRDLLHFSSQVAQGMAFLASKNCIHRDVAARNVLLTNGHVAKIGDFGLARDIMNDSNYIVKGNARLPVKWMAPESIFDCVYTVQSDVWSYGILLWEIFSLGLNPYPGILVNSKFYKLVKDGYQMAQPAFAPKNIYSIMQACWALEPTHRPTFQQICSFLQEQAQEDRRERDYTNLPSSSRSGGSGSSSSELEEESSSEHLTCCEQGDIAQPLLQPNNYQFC

Sequence of PDGFRα (P16234 24-1089): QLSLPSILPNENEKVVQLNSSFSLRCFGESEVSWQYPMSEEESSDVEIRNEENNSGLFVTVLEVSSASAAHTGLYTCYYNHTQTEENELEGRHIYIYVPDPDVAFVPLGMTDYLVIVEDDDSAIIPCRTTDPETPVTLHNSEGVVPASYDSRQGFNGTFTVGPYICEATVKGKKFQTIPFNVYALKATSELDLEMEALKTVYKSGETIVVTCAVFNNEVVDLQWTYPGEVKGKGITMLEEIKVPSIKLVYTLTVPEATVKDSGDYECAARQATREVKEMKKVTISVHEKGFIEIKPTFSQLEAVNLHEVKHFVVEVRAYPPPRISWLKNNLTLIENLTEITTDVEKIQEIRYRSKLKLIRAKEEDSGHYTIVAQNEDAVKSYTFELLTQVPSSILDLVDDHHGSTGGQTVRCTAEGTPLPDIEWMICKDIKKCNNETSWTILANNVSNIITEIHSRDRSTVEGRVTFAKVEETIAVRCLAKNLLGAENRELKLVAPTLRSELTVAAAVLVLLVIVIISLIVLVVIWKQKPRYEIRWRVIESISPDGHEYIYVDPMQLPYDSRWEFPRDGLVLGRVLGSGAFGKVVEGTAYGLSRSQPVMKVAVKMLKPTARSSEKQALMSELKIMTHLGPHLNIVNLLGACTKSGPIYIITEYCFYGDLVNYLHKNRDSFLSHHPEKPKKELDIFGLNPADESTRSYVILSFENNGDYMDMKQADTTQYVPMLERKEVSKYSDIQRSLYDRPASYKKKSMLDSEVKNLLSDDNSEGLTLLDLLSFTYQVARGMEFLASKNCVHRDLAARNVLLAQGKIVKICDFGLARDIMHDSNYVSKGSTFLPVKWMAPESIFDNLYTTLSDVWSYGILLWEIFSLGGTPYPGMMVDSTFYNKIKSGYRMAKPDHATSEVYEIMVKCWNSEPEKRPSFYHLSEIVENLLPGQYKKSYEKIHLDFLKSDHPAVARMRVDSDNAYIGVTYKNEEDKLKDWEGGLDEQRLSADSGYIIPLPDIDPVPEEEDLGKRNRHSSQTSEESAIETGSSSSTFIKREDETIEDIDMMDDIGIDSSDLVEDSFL
Sequence of PDGFRβ (P09619 33-1106): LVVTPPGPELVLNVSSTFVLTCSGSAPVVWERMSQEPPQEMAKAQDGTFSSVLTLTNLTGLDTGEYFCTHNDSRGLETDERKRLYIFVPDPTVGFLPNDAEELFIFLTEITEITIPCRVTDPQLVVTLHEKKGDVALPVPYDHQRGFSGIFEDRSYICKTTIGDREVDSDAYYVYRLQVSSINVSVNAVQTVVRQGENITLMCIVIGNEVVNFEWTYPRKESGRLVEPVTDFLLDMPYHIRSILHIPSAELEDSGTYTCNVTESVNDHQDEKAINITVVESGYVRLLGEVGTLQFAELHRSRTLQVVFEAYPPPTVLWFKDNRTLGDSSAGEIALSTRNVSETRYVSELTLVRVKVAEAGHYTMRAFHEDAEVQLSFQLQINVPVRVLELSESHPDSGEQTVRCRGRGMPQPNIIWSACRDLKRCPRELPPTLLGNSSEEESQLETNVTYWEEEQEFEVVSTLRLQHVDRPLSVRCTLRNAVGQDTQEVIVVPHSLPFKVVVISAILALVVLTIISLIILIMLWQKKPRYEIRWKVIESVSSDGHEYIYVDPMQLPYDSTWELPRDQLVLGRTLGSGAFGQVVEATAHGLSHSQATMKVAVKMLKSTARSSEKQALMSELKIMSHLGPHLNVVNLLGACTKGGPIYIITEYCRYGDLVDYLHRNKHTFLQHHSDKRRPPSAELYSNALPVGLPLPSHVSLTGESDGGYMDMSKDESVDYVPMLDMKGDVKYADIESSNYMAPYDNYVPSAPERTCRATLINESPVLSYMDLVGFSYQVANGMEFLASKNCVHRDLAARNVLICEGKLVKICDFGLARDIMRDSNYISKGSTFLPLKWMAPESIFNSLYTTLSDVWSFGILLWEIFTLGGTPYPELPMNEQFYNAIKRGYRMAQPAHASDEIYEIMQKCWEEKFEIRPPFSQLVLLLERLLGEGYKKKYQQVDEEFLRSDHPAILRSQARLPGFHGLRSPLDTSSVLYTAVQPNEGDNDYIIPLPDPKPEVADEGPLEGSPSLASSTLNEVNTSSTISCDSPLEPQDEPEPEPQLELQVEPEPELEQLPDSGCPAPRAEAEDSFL

`Cc1cc(F)c(C(=O)Nc2cc(C(F)(F)F)ccn2)cc1NC(=O)c1cnc(N)s1` [Example 178, 2-Amino-N-[4-fluoro-2-methyl-5-[[4-(trifluoromethyl)pyridin-2-yl]carbamoyl]phenyl]-1,3-thiazole-5-carboxamide]: the IC50 at c-Kit, against PDGFRα, on PDGFRβ and on CSF1R was less than 100 nM each time.
Turning to `Cc1cc(F)c(C(=O)Nc2cc3n(n2)CCN(C)C3)cc1NC(=O)c1cnc(N)s1` [Example 180, 2-Amino-N-[4-fluoro-2-methyl-5-[(5-methyl-6,7-dihydro-4H-pyrazolo[1,5-a]pyrazin-2-yl)carbamoyl]phenyl]-1,3-thiazole-5-carboxamide], the IC50 (usually the point on the concentration scale where inhibition reaches its midpoint) at c-Kit was less than 100 nM; on PDGFRα, more than 1000 nM; on PDGFRβ, more than 1000 nM; against CSF1R it was more than 1000 nM.
As to `Cc1cc(F)c(C(=O)Nc2cc3n(n2)CCOC3)cc1NC(=O)c1cnc(N)s1` [Example 182, 2-Amino-N-[5-(6,7-dihydro-4H-pyrazolo [5,1-c][1,4]oxazin-2-ylcarbamoyl)-4-fluoro-2-methylphenyl]-1,3-thiazole-5-carboxamide], the IC50 against c-Kit was less than 100 nM; against PDGFRα, more than 1000 nM; against PDGFRβ it was 100 to 1000 nM; at CSF1R, more than 1000 nM.
As to `Cc1cc(F)c(C(=O)Nc2ccc3c(c2)NC(=O)C3(C)C)cc1NC(=O)c1cnc(N)s1` [Example 183, 2-Amino-N-[5-[(3,3-dimethyl-2-oxo-1H-indol-6-yl)carbamoyl]-4-fluoro-2-methylphenyl]-1,3-thiazole-5-carboxamide], the IC50 was less than 100 nM on c-Kit, less than 100 nM at PDGFRα, less than 100 nM against PDGFRβ and 100 to 1000 nM on CSF1R.
As for `Cc1cc(F)c(C(=O)Nc2ccc3c(c2)C(C)(C)C(=O)N3)cc1NC(=O)c1cnc(N)s1` [Example 184, 2-Amino-N-[5-[(3,3-dimethyl-2-oxo-1H-indol-5-yl)carbamoyl]-4-fluoro-2-methylphenyl]-1,3-thiazole-5-carboxamide], the IC50 at c-Kit was less than 100 nM; against PDGFRα, less than 100 nM; against PDGFRβ, less than 100 nM; on CSF1R it was 100 to 1000 nM.
In the case of `CO[C@H]1C[C@@H](n2nccc2NC(=O)c2cc(NC(=O)c3cnc(N)s3)c(C)cc2F)C1` [Example 186, 2-Amino-N-[4-fluoro-5-[[2-(cis-3-methoxycyclobutyl)pyrazol-3-yl]carbamoyl]-2-methylphenyl]-1,3-thiazole-5-carboxamide], the IC50 against c-Kit is 100 to 1000 nM; on PDGFRα, more than 1000 nM; against PDGFRβ it was more than 1000 nM; at CSF1R, more than 1000 nM.
For `Cc1cc(F)c(C(=O)Nc2ccc3c(c2)C(F)(F)C(=O)N3)cc1NC(=O)c1cnc(N)s1` [Example 188, 2-Amino-N-[5-[(3,3-difluoro-2-oxo-1H-indol-5-yl)carbamoyl]-4-fluoro-2-methylphenyl]-1,3-thiazole-5-carboxamide], the 50% inhibitory concentration (IC50) against c-Kit, at PDGFRα, against PDGFRβ and on CSF1R was less than 100 nM each time.
Turning to `Cc1cc(F)c(C(=O)Nc2cc(C3CC3)ccn2)cc1NC(=O)c1cnc(N)s1` [Example 190, 2-Amino-N-[5-[(4-cyclopropylpyridin-2-yl)carbamoyl]-4-fluoro-2-methylphenyl]-1,3-thiazole-5-carboxamide], the IC50 on c-Kit, at PDGFRα, against PDGFRβ and on CSF1R was less than 100 nM each time.
Regarding `Cc1cc(F)c(C(=O)Nc2ccc(OC3COC4(CC4)C3)cn2)cc1NC(=O)c1cnc(N)s1` (stereo not drawn) [Example 199, 2-Amino-N-[4-fluoro-2-methyl-5-[[5-(4-oxaspiro[2.4]heptan-6-yloxy)pyridin-2-yl]carbamoyl]phenyl]-1,3-thiazole-5-carboxamide], the IC50 on c-Kit is less than 100 nM; at PDGFRα, more than 1000 nM; against PDGFRβ, more than 1000 nM; on CSF1R it was more than 1000 nM.
